What was measured:
GFAP = GFAP immunoreactivity and GFAP+ cell density, hippocampus and frontal cortex (Example 2); type: in vivo, C57BL/6 male mice
Description: Mice between 2-3 months of age after one week of acclimatization were randomly divided into two groups. Stressed mice were subjected to restraint stress. Control (non-restrained) mice were allowed to move freely during this period. After the stress exposure period, mice were divided into three experimental groups: 1) Non-restrained mice treated with vehicle (PBS, pH 7.4) serving as unstressed controls (n=8); 2) Restrained mice (RS) treated with vehicle (n=8); 3), RS mice treated with 24 μl of a cotinine solution (10 mg/ml in PBS, pH 7.4) via intranasal route of administration (n=6). Treatments were administered daily until euthanasia. After two weeks of treatments mice were behaviorally tested and euthanized (FIG. 10)
For all protein analyses, mice were euthanized and brains removed. Each brain was divided into two hemispheres. The left hemisphere of brains was dissected out to collect the regions of interest and quickly frozen for later analyses. For the immunohistochemical (IHC) analysis the right hemisphere of each mouse brain was placed in 10% formalin in PBS pH 7.4 for 48 h and then embedded in paraffin. Each region of interest was located using Paxinos Atlas as a reference (Paxinos and Franklin, 2004), and serial […] of 4 μm (n≥5/mouse) were collected using the Microtome Leica RM 2125RT and mounted on silanized glass slides.
The analysis of GFAP^+ cells was performed using tissue slices containing the ventral hippocampus (Approx. Bregma −4.08 mm, interaural 4.92 mm) and frontal cortex (Approx. Bregma 3.2 mm, interaural 1.54 mm). Sagittal sections of brains were collected in PBS and processed for GFAP immunoreactivity (IR). Brain slices were immersed in xylene and a decreasing graduation of ethanol baths for hydration. Then, slides were subjected to a standard process of antigenic recovery in buffer citrate pH=6 in a pressurized saucepan (Biocare Medical, Walnut Creek, Calif.) for 30 min. Next, slides were incubated with a solution of 3% hydrogen peroxide to block endogenous peroxidase for 5 min, washed with PBS, and blocked with a horse serum solution (Vectastain Elite ABC, Vector Laboratories, Burlingame, Calif., USA) for 10 min at room temperature (RT). Sections were washed in PBS and incubated for 1 hour (Franklin, 2001) at RT with an antibody against GFAP 1:100 (Sigma). After washing with PBS, sections were incubated with a biotinylated secondary antibody for 10 min. Then, sections were washed with PBS and incubated with the amplifier solution from the Vectastain Elite kit for 10 min at RT. The reaction was visualized using ImmunoDetector DAB (SB Bio Inc., Santa Barbara, Calif., USA). For counterstaining, sections were stained with hematoxylin for 30 seconds (sec), dehydrated in baths of ascending percentages of alcohol solutions and xylene, and mounted with synthetic resin.
For the IR analysis, for each mouse, three digital images were randomly selected at 40× magnifications in the areas of interest (hippocampus and frontal cortex) (n=5-6/condition). […] The determination of the area of the immunolabeling was calculated delimiting the IR areas using the ImageJ software (National Institute of Health, Bethesda, […]., USA). For all analyses, GFAP^+ astrocytes were selected randomly from the frontal cortex and the CA1, CA3 and dentate gyrus regions of the hippocampus and quantified. […]

GFAP+ astrocytes = assay: Morphology and fractal analysis of GFAP+ cells in the hippocampus (Example 2); type: in vivo, C57BL/6 male mice
Description: For the IR analysis, for each mouse, three digital images were randomly selected at 40× magnifications in the areas of interest (hippocampus and frontal cortex) (n=5-6/condition). The images were taken using a digital camera attached to a light microscope (Micrometrics, MilesCo Scientific, Princeton, Minn., USA) connected to a camera operated by a commercial software (Micrometrics SE Premium). The determination of the area of the immunolabeling was calculated delimiting the IR areas using the ImageJ software (National Institute of Health, Bethesda, […]., USA). For all analyses, GFAP^+ astrocytes were selected randomly from the frontal cortex and the CA1, CA3 and dentate gyrus regions of the hippocampus and quantified. Using a digital camera on an inverted microscope, black and white images of GFAP^+ astrocytes were obtained and processed with Image J software. Using a 20× objective, cells were chosen randomly in the same area selected for immunostaining, and the binary overlay of a cell was created by thresholding. For all images, a threshold value was established at the level at which the binary overlay entirely enclosed the cell body and projections. All pixels above the threshold value were considered as belonging to the cell images. Finally, the binary silhouette of the whole cell was reduced to its one-pixel outline for estimation of the fractal dimensions with the FracLac 2.5 ImageJ plug-in (Karperien et al., 2013; Karperien and Jelinek, 2015)
Fractal analysis was done on binary images by means of the dilation method (Schaffner and Ghesquiere, 2001). The slope of the regression line (S) is related to the fractal dimension (D) by D=1−S. Each pixel in the cell outline was replaced with a disk of a diameter fluctuating from 3-61 pixels and the area of the widened outline divided by the diameter of structuring element was plotted against this diameter on a log-log scale.
the area of the cell body that is calculated as the two-dimensional cross-sectional area contained within the boundary of the cell body.
The area of the convex polygon formed by connecting the tips of the longest astrocytic processes (convex hull area). Convex hull values indicate the size of the branching field of the astrocyte. The amount of physical space is defined in terms of convex-hull volume, surface area, area, and or perimeter.
Measures heterogeneity and complements fractal dimension analysis in describing structural complexity (Karperien et al., 2013; Karperien and Jelinek, 2015; Schaffner and Ghesquiere, 2001).

[1] = cotinine IN administered after RS
[2] = cotinine-treated restrained mice

CN1C(=O)CC[C@H]1c1cccnc1 [Cotinine, (5S)-1-methyl-5-(3-pyridyl) pyrrolidin-2-one]
number of hippocampal GFAP+ cells counted (GFAP; Ctrl 144, RS 97): 140 | GFAP IR in the frontal cortex (GFAP; [1]): 90 % of control values | GFAP IR in the hippocampus (GFAP; [1]): 84 % of control value | GFAP+ cell density in hippocampal regions (GFAP; restrained mice, CA1 p<0.01, CA2 p<0.05, DG p<0.01): significantly higher in the cotinine-treated restrained mice relative to vehicle-treated restrained mice | GFAP+ cell density in control (non-stressed) mice (GFAP; vehicle-treated vs cotinine-treated control mice): No significant differences | GFAP+ cell area across CA1, CA3 and DG (GFAP+ astrocytes; [2]): statistically indistinguishable from nonstressed controls | appearance of GFAP+ astrocytes in hippocampi and frontal cortices (GFAP+ astrocytes; [2]): large GFAP^+ cells with longer and more complex arborization | arbor area of astrocytes, DG (GFAP+ astrocytes; p<0.001 vs vehicle-treated restrained mice): greater astrocytic arborization than vehicle-treated, restrained mice | fractal dimension (FD) of astrocytes, DG (GFAP+ astrocytes; p<0.05): vehicle-treated, restrained mice had a significant reduction in FD of astrocytes in the DG when compared to cotinine-treated, restrained mice | lacunarity of astrocytes, DG (GFAP+ astrocytes; p<0.05): vehicle-treated, restrained mice had reduced lacunarity of astrocytes relative to both their cotinine-treated, stressed | arbor area of astrocytes, CA3 (GFAP+ astrocytes; p<0.05 vs non-stressed controls, p<0.01 vs vehicle-treated restrained): significantly more arbor area of astrocytes than non-stressed controls | arbor area of astrocytes, CA1 (GFAP+ astrocytes; p<0.05 vs non-stressed controls, p=0.075 vs vehicle-treated stressed): significantly more arbor area than the non-stressed controls

From patent US11260050B2, “Combination of cotinine plus antioxidant for treatment-resistant depression and correction of astrocytes functional deficit induced by depression and other neuropathological” (UNIVERSIDAD SAN SEBASTIAN, priority 2017, dated 2022)
